Test results reported in ChEMBL document CHEMBL1201862, “PubChem BioAssay data set” (2004).
Active and inactive are the calls of the source.

What was measured:
[1] = molecular target: 5-hydroxytryptamine receptor 1E (Homo sapiens, UniProt P28566); test: Counterscreen assay for S1P3 antagonists: Dose response cell-based high throughput screening assay to identify antagonists of the 5-Hydroxytryptamine Receptor Subtype 1E (5HT1E). [Related pubchem assays: 1429, 485 ]; format: functional
[2] = molecular target: Sphingosine 1-phosphate receptor 3 (Homo sapiens, UniProt Q99500); test: Dose response cell-based high throughput screening assay for antagonists of the Sphingosine 1-Phosphate Receptor 3 (S1P3). [Related pubchem assays: 1429, 485 ]; format: functional
[3] = Luminescence Cell-Based Dose Response to Identify Activators of Luciferase Translation or Activity in H4-C Neuroglioblastoma Cells. [Related pubchem assays: 1829 (Project Summary), 1814 (Primary HTS)]; format: functional
H4 = test: Luminescence Cell-Based Dose Response HTS to Identify Activators of 5'UTR Stem-Loop Driven Prion Protein mRNA Translation in H4 Neuroglioblastoma Cells. [Related pubchem assays: 1829 (Project Summary), 1814 (Primary HTS)]; format: functional; details: Homo sapiens
[4] = Luminescence Cell-Based Dose Response HTS to Identify Activators of Luciferase Translation or Activity in H4 […] Cells. [Related pubchem assays: 1829 (Project Summary), 1814 (Primary HTS)]; format: functional
[5] = Luminescence Cell-Based Dose Confirmation to Identify Activators of 5'UTR Stem-Loop Driven Alpha-Synuclein mRNA Translation in H4 Neuroglioblastoma Cells. [Related pubchem assays: 1829 (Project Summary), 1814 (Primary HTS)]; format: functional
[6] = Luminescence Cell-Based Dose Response to Identify Activators of 5'UTR Stem-Loop Driven Prion Protein mRNA Translation in H4-C Neuroglioblastoma Cells. [Related pubchem assays: 1829 (Project Summary), 1814 (Primary HTS)]; format: functional
[7] = Luminescence Cell-Based Dose Confirmation HTS to Identify Activators of 5'UTR Stem-Loop Driven Alpha-Synuclein mRNA Translation in H4 Neuroglioblastoma Cells. [Related pubchem assays: 1829 (Project Summary), 1814 (Primary HTS)]; format: functional
Ion channel NompC = Ion channel NompC (Danio rerio, UniProt Q7T1G6); test: Fluorescence counterscreen assay for TRPML3 agonists: dose response cell-based high-throughput screening assay to identify agonists of the transient receptor potential channel N1 (TRPN1). [Related pubchem assays: 1526, 1424, 1448 ]; format: functional
Mucolipin-3 = Mucolipin-3 (Homo sapiens, UniProt Q8TDD5); test: Dose response cell-based high-throughput screening assay for agonists of the transient receptor potential channel ML3 (TRPML3). [Related pubchem assays: 1526, 1424, 1448 ]; format: functional
[8] = antiviral protection against BTV-induced cell death – arbovirus, BSR cells, confirmation (AID 1250); format: functional;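 note: protection from viral cytopathic effect measured as cell viability by ATP luminescence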
[9] = viability of uninfected HEp-2 cells – cell-based, HTS, cytotoxicity control for RSV inhibitor project, dose response (AID 2410); format: functional; details: human respiratory syncytial virus
[10] = viability loss of HPDE-C7K cells – cell-based, fluorescence, HTS, primary screen (AID 431); format: functional; details: Homo sapiens
[11] = HPDE-C7 pancreatic duct cell viability loss – fluorescence, HTS (AID 430); format: functional, cell-based; details: Homo sapiens
[12] = CCR5-tropic HIV-1 fusion blockers – cell-based, CCR5-tropic Env, dose response (AID 2279); format: functional
NS3 = NS3 (Hepatitis C virus, UniProt A3EZJ3); test: PubChem AID 2173; design: species or system Hepacivirus hominis
Sequence of NS3 (A3EZJ3 whole entry): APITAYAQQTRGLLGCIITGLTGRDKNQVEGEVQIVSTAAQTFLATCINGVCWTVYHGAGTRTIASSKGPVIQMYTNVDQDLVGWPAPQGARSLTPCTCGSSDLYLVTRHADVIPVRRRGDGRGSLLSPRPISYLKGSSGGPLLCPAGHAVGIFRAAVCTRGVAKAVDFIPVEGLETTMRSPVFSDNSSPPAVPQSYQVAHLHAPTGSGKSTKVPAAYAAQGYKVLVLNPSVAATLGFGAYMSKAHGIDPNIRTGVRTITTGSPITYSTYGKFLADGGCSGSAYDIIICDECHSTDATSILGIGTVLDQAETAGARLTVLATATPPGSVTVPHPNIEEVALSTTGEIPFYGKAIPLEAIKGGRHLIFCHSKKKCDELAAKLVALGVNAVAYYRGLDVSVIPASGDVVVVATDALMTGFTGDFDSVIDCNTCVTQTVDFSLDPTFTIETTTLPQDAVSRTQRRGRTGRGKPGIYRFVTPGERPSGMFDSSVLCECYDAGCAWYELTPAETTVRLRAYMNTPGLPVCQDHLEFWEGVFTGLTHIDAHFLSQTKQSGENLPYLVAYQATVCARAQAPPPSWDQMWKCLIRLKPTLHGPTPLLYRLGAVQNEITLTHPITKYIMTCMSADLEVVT

Sequence of 5-hydroxytryptamine receptor 1E (P28566 whole entry): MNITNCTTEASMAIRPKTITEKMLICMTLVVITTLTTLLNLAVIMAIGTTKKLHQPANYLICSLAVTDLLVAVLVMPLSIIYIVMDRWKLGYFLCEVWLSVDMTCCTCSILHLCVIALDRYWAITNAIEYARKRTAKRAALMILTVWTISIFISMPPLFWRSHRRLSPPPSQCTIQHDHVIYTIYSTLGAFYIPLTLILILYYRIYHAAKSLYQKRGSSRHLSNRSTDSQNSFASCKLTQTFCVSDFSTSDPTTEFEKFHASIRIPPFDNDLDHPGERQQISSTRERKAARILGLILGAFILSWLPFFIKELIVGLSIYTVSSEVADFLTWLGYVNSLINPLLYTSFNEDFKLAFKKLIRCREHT
Sequence of Sphingosine 1-phosphate receptor 3 (Q99500 whole entry): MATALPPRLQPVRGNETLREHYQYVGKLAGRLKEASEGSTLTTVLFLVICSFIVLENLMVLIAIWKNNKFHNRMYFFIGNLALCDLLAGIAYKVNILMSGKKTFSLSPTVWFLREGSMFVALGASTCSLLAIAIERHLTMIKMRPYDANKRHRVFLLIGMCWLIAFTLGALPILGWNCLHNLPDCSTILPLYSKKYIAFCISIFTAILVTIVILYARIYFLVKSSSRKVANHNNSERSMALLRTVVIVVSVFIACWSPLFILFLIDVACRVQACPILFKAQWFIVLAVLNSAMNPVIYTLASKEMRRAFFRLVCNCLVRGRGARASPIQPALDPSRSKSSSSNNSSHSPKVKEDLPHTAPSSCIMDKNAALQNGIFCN
Sequence of Ion channel NompC (Q7T1G6 whole entry): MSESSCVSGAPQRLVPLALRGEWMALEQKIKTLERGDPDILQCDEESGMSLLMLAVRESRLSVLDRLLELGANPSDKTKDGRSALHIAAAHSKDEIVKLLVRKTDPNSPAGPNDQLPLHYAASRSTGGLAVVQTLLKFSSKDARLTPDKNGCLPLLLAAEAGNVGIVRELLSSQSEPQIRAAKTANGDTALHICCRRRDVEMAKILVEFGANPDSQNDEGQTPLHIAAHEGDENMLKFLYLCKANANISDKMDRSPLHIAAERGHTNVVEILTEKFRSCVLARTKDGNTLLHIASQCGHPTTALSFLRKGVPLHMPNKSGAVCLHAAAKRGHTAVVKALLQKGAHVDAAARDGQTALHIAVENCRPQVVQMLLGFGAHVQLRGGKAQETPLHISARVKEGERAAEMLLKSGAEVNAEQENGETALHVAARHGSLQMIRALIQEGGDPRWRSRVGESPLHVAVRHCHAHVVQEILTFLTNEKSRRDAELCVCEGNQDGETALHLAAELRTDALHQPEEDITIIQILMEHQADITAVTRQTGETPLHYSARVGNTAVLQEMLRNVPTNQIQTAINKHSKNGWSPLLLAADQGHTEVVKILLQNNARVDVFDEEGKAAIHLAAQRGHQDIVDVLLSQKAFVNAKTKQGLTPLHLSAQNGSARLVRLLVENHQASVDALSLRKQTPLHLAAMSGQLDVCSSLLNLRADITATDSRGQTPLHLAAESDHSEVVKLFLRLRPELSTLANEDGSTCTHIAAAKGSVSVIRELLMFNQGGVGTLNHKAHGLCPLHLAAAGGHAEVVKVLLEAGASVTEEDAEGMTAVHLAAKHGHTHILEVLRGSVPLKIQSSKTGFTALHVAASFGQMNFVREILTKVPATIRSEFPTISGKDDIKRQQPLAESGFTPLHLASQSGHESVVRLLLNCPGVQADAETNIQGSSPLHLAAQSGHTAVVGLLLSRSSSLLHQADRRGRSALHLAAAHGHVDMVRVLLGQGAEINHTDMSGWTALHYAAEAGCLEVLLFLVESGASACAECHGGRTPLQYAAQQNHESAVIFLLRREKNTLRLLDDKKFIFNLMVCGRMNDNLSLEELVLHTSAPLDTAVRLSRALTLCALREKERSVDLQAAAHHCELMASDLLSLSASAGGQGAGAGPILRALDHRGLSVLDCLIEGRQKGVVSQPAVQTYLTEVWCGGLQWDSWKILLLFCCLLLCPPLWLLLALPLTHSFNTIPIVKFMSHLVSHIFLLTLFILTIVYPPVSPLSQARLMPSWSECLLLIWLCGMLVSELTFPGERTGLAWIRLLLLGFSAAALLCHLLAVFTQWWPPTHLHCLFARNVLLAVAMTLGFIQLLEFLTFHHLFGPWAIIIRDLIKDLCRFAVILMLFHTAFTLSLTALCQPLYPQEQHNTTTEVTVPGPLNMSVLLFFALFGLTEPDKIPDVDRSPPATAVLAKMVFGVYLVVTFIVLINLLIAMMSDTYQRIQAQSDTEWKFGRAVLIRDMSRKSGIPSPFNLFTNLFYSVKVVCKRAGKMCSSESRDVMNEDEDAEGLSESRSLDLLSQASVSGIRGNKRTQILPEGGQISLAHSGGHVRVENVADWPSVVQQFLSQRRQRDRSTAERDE
Sequence of Mucolipin-3 (Q8TDD5 whole entry): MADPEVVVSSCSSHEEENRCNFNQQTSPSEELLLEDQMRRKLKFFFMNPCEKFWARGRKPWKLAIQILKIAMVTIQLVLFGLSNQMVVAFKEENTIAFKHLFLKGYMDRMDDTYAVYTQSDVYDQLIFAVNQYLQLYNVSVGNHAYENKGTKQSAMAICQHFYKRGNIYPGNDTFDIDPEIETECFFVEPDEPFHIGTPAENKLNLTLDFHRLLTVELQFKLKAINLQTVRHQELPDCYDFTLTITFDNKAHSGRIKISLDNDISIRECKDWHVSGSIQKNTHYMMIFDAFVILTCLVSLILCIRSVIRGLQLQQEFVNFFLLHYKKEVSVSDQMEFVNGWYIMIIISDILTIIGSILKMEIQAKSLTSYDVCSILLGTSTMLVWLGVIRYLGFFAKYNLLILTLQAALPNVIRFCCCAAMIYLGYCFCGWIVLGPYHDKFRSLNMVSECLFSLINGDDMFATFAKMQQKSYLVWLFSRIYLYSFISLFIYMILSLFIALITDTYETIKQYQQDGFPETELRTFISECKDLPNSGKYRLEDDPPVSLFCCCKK

## O=C(Nc1ccc(F)cc1F)c1c(C(F)(F)F)ccnc1Oc1ccc(Cl)cc1
[1]
  IC50: > 50 µM (not active)
[2]
  IC50: 4.29 µM (active)

## O=C1c2ccccc2C(=O)c2c1ccc1c(O)n(-c3ccccc3)nc21
[3]
  EC50: 478 nM (active)
H4
  EC50: 59.2 µM (inconclusive)
[4]
  EC50: < 100 nM (active)
[5]
  EC50: 360 nM (active)
[6]
  EC50: 563 nM (active)
[7]
  EC50: < 100 nM (active)

## COc1ccc(OC)c(N(CC(=O)N2CCCCC2)S(=O)(=O)c2ccc(OC)c(OC)c2)c1
Ion channel NompC
  EC50: 25.6 µM (not active)
Mucolipin-3
  EC50: 1.67 µM (active)

## COC(=O)c1c(N(S(C)(=O)=O)S(C)(=O)=O)sc2c1CCN(c1ncc(C(F)(F)F)cc1Cl)C2
[8]
  IC50: 29.2 µM (active)
[9]
  CC50: 16.9 µM (active)

## CCOC(=O)c1ccccc1NC(=O)c1c(F)c(F)c(F)c(F)c1F
[10]
  EC50: 13.6 µM (active)
[11]
  EC50: 15.7 µM (active)

## O=C(Nc1ccc(-c2nc3ccccc3[nH]2)cc1)c1ccccc1NS(=O)(=O)c1ccc(F)cc1
[12]
  IC50: > 50 µM (active)

## O=C(Nc1nc(-c2ccco2)c(-c2ccco2)s1)C1CCC1
NS3
  IC50: 30.4 µM (not active)

## O=C(N/N=C/c1ccc(-c2ccc([N+](=O)[O-])cc2)o1)[C@H]1C[C@@H]1c1ccccc1
[1]
  IC50: 1.96 µM (active)
[2]
  IC50: 3.03 µM (active)
